Data set [1] deals with mice. In words: Forced Swim Test on mice. It is filed as in vivo.
In data set [2] the test system is mice. Description: Cook's Pole Climbing Test on mice. Type of data set: in vivo.
The test system of data set [3] is healthy young adults. Description: Go/No Go Attention and Inhibitory Control Test. It is filed as in vivo. As to conditions: 200 mg paraxanthine; 5 g BHB; 200 mg paraxanthine and 5 g BHB; baseline and 1-6 hours after supplementation; FIG. 4. From the text: Attention and inhibitory control can be measured using a Go/No Go Test, which is used to measure a participant's capacity for sustained attention and response control. The Go/No Go Test is routinely used in the field, and will be familiar to those of skill in the art. In the Go/No Go Test, participants watch a 2×2 array of squares, and then there is a successive presentation of letters (e.g., either P or R) and the participant responds to a target letter by pressing the corresponding button on a keyboard. The single letter (P or R) is presented in one of the 4 squares for 500 milliseconds, with 1500 milliseconds between subsequent stimuli. For the P-Go condition, participants are asked to press the P key in response to the letter P, and abstain from responding to the letter R. For the R-reversal condition, the participants are asked to respond to the letter R, and abstain when seeing the letter P. Mean response time, as well as percentage of correct answers are recorded. When running each such tests, subjects are given either paraxanthine+BHB, paraxanthine alone, BHB alone, or a placebo. The dosage amounts are 200 mg paraxanthine and 5 g of BHB, 200 mg of paraxanthine alone, 5 g of BHB alone, or a placebo. The testing is conducted under double blind, placebo controlled conditions. […]

In data set [4] the test system is healthy young adults. In words: Vigilance Task Test. It is filed as in vivo. As to conditions: 200 mg paraxanthine; 5 g BHB; 200 mg paraxanthine and 5 g BHB; baseline and 1-6 hours after supplementation; FIG. 6. From the text: The Vigilance Task Test is another test routinely used in the field, and is used to evaluate a participants ability to sustain attention. The Vigilance Task Test is a sustained attention, reaction timed task test that measures the speed with which participants respond to a visual stimulus. The subjects respond to visual stimuli (e.g., a red dot) by pressing a key as soon as it appears on the computer screen. The light turns on at random, e.g., roughly every couple of seconds or so during the test. The speed of response is measured. Due to the random nature of the test, there is no learning effect. Mean response time is recorded. When running each such tests, subjects are given either paraxanthine+BHB, paraxanthine alone, BHB alone, or a placebo. The dosage amounts are 200 mg paraxanthine and 5 g of BHB, 200 mg of paraxanthine alone, 5 g of BHB alone, or a placebo. The testing is conducted under double blind, placebo controlled conditions. The subjects include 13 healthy young adults (10 male, 3 female), aged 24±5 years; height 170.0±11.8 cm; weight 72.9±19.3 kg.

Data set [5] in a line: Age-related cognitive decline study. It is filed as in vivo. As to conditions: BHB 5 g.
Data set [6] is described as follows: Clinical Stroop Test study. It is filed as in vivo. The note with it: paraxanthine 200 mg; BHB 5 g; paraxanthine 200 mg with BHB 5 g; 6-week period; FIGS. 15A-15C. An excerpt:
The Stroop effect refers to the delay in reaction time between congruent and incongruent stimuli. […] When paired with paraxanthine, the combination provides a synergistic improvement in mental acuity.

A short description of data set [7]: Clinical Resting Energy Expenditure study. Type of data set: in vivo. As to conditions: paraxanthine 100 mg or 300 mg; BHB 5 g; paraxanthine 100 mg or 300 mg with BHB 5 g; 180-day period. The method, then: FIGS. 16A-16B show expected results of a clinical Resting Energy Expenditure study, where participants are supplemented with paraxanthine alone (100 mg or 300 mg), BHB alone (5 g), or paraxanthine (100 mg or 300 mg) in combination with BHB (5 g) over a 180-day period. […] Because of the presence of the BHB ketone body component, such increased metabolic rate is also more likely to occur within the context of ketogenic state, where fat is principally used as the caloric energy source for the increased resting metabolic rate.

The conditions of data set [8]: cited from earlier work.
For data set [9] the following is noted: cited from earlier work; for Total plasma clearance: in vivo; for half-life: elimination half-life, FIG. 3.
In data set [10] the test system is dopaminergic neurons. As to conditions: cited from earlier work.
For data set [11] the following is noted: elevated doses; cited from earlier work.
For data set [12] the following is noted: metabolite of caffeine, FIG. 2; cited from earlier work.

In general, pKa refers to the negative logarithm of the acid dissociation constant. One may read the half-life as how long it takes for the measured level to halve.

In the case of `C[N+](C)(C)CCOP(=O)([O-])OC[C@H](O)CO` [Alpha-GPC], in data set [1] (Alpha-GPC 200 mg), the “Duration of Immobility” value was found to be 9.38 min and the “Duration of mobility/active swimming” value was found to be 20.63 min. Also, the “No. of Climbing” value in data set [2] (Alpha-GPC 200 mg) was found to be 5.5.

On to `CC(O)CC(=O)O` (stereo not drawn) [BHB, beta-hydroxybutyrate], for which, in data set [3], the “Go/No Go Test correct responses” value is “decrease in correct answers over time”. Moreover, in [4], the “Vigilance Task Test average response time” value was “significantly slower reaction times”. Further, in data set [5], the Acetylcholine was 58 U/mL, the BDNF came out at 775 pg/mL, the Catalase is recorded as 28 U/mL and the Dopamine was 475 ng/L. Also, in [5], the “Escape Latency” value was 50 s and the Glutathione was 22 µg/mL. In data set [1] (BHB 5 g), the “Duration of Immobility” value is given as 9.5 min and the “Duration of mobility/active swimming” value is given as 20 min. Further, the “No. of Climbing” value in [2] (BHB 5 g) is 6. In [6], the “Stroop test number of correct answers” value is on record as “little if any benefit” and the “Stroop test reaction speed” value is recorded as “little if any benefit”. Further, the resting energy expenditure entry in data set [7] is reported as “only a minor benefit”.

For `CCNC(=O)CC[C@H](N)C(=O)O` [L-Theanine, L-theanine], in data set [1] (L-Theanine 50 mg), the “Duration of Immobility” value is listed as 8.74 min and the “Duration of mobility/active swimming” value is 21.26 min. For the same compound, the “No. of Climbing” value in data set [2] (L-Theanine 50 mg) is given as 4.38.

With `NCCS(=O)(=O)O` [Taurine, taurine], in [1] (Taurine 500 mg), the “Duration of Immobility” value is given as 9.61 min and the “Duration of mobility/active swimming” value stood at 20.39 min. In data set [2] (Taurine 500 mg), the “No. of Climbing” value is reported as 6.5.

Regarding `CC(O)CC(=O)O` (stereo not drawn) [beta-hydroxybutyric acid], in data set [8], the pKa was 4.70.

Consider `Cn1c(=O)c2c(ncn2C)n(C)c1=O` [caffeine], for which the Total plasma clearance in data set [9] is given as 2.07 mL/min/kg. Also, the “protection against neurodegeneration and the loss of synaptic function” value in [10] is on record as “marginal protection”.

Take `NC(=O)C[S+]([O-])C(c1ccccc1)c1ccccc1` (centres unmarked) [modafinil]: in [11], the “hypothermia and reduced locomotor activity” value was “induce hypothermia and reduced locomotor activity”.

In the case of `Cn1cnc2c1c(=O)[nH]c(=O)n2C` [theobromine], in data set [9], the half-life is 7.2 h and the Total plasma clearance was 1.2 mL/min/kg.

Regarding `Cn1c(=O)c2[nH]cnc2n(C)c1=O` [theophylline], in data set [9], the half-life is 6.2 h and the Total plasma clearance is 0.93 mL/min/kg. Besides, the “share of the methylxanthine metabolic by-products” value in [12] is 4%.
